# Test results reported in a melting point compilation (Tetko et al.; mined from patent text by program, amines drawn as free bases though some values may be those of a salt).
row,SMILES,melting point
1,CC(C)(C)OC(=O)CN(C(=O)CN1C(=O)c2ccccc2C1=O)c1ccccc1C(=O)N1CCCc2ccccc21,150 °C
2,CC(C)OC(=O)c1cc(-n2c(=O)n3n(c2=S)COCC3)c(F)cc1Cl,67 to 69 °C
3,CN1C(=O)[C@H](NC(=O)CCC2CCCCC2)[N+]([O-])=C(c2ccccc2)c2ccccc21,222 to 224 °C
4,O=Cc1nc2cc(F)ccc2s1,105 to 107 °C
5,COc1ccc(F)c(CC2CCN([C@H]3CC[C@H](c4ccc5c(c4)OCO5)CC3)CC2)c1,89 to 91 °C
6,CCNc1cc(Cl)c(C(F)(F)F)cc1[N+](=O)[O-],92.5 to 94 °C
7,COc1cccc(CC2CCCc3cc(OCc4ccccc4)c(OC)cc3N2)c1 (stereo unspecified),92 to 93 °C
8,COc1ccc(C2=NN(C3CCOCC3)C(=O)[C@H]3CC=CC[C@@H]23)cc1OC1CCCC1 (relative stereo),116 to 117 °C
9,O=C(NCC1CC1)c1cccnc1Oc1cncc(Cl)c1,105 to 107 °C
10,CN1CCN(c2cccc3ccc(NC(=O)OCc4ccccc4)cc23)CC1,143 to 144 °C
11,CC(C)(CO)NC(=O)c1nn(-c2ccc(Cl)cc2)c2c1C1CCC2C1 (stereo unspecified),167 to 169 °C
12,Nc1cc(NCCC2CCCCC2)nc2c1ncn2C1OC(CO)C(O)C1O (stereo unspecified),194 to 195 °C
13,CC(C)(C#N)OC(=O)Nc1ccc(-c2ncn(-c3ccc(OC(F)(F)F)cc3)n2)cc1,172 to 175 °C
14,COc1ccc(-c2cc(C)c(C(=O)O)c(C)c2)cc1OC,175 to 176 °C
15,CC(C)C[C@@H](C=O)NC(=O)[C@H](Cc1c[nH]cn1)NC(=O)[C@H](Cc1ccccc1)NC(=O)CCCc1ccccc1,98 to 103 °C
16,CSC(SC)=C(C#N)S(=O)(=O)c1ccccc1,99 to 101 °C
17,Clc1ccc(-c2cc(Cl)c3cc(Cl)ccc3n2)cc1,204 to 208 °C
18,COc1cc2c(cc1Cl)CC(C)=NN=C2c1ccc(N)cc1,198 to 200 °C
19,O=S(=O)(Nc1ccc2c(OCc3csc(-c4ccccc4Cl)n3)cccc2c1)C(F)(F)F,128 to 129 °C
20,CCOCOC1(C(=O)COC(C)=O)C(C)CC2C3CC(C)C4=CC(=O)C=CC4(C)C3C(O)CC21C (stereo unspecified),137 to 139 °C
21,CC(C)c1cccc(C(C)C)c1NC(=O)C(c1ccccc1)n1nnc(C(c2ccccc2)c2ccccc2)n1 (stereo unspecified),180 to 183 °C
22,CCCCCCCCCCCCCCCCOC(=O)CCCCCCCCCCCCCCC,75 °C
23,CC12CCC3C(CC4OC45CC(O)CCC35C)C1CCC2=O (stereo unspecified),197 to 200 °C
24,N#Cc1c(N)[nH]c(Br)c1C#N,> 210 °C

row,SMILES,melting point
1,COC(C)CNc1nccc(-c2ccnc(Nc3cccc(F)c3)c2)n1 (stereo unspecified),103 to 105 °C
2,C=C[C@@H]1CCC(=O)N1C(=O)[C@H](Cc1ccccc1)O[Si](C)(C)C(C)(C)C,92 to 93.5 °C
3,C#CCOc1ccc(C(=O)OC)c(OC)c1,88 °C
4,CN1CCN(Cc2ccc(-c3cc4ncc(C#N)c(Nc5ccc(Oc6ccccc6)cc5)c4s3)cc2)CC1,199 to 201 °C
5,O=C1CCCN1c1cn(-c2cccnc2)nc1Cl,109 to 110 °C
6,Cc1cc(C2(C(F)(F)F)CN=C(c3ccc(Cl)cc3)S2)ccc1NC(=O)c1cccc(I)c1C(=O)NC(C)C (stereo unspecified),121 to 123 °C
7,CCCCCCCNCCCCCCCCSc1nc(-c2ccccc2)c(-c2ccccc2)[nH]1,87 to 89 °C
8,O=C(NC(CO)CNS(=O)(=O)c1ccc(Oc2ccccc2)cc1)OCc1ccccc1 (stereo unspecified),86 to 89 °C
9,CCCCc1c2ccccc2nc2cc(N)ccc12,108 to 110 °C
10,CCOC(=O)c1noc([C@@H](Cc2ccc3ccccc3c2)N(C)C(=O)OC(C)(C)C)n1,99 to 102 °C
11,O=[N+]([O-])c1ccc(Nc2cccc(C(F)(F)C(F)(F)C(F)(F)C(F)(F)C(F)(F)C(F)(F)C(F)(F)C(F)(F)F)c2)c([N+](=O)[O-])c1,124 to 125 °C
12,CCCc1cn(Cc2ccc(C(=O)NS(=O)(=O)c3ccccc3Cl)cc2OC)c2cc(CCCC(=O)N(C)C)ccc12,137 to 138 °C
13,OC(CCl)(CC(Cl)(Cl)Cl)c1cc(Cl)cc(Cl)c1 (stereo unspecified),69 to 70.5 °C
14,COc1cccnc1C(O)c1ccc(NC(=O)C2=Cc3cc(-c4ccc(C)cc4)ccc3OCC2)cc1 (stereo unspecified),232 to 233 °C
15,COC(=O)c1cc2cc(OCc3ccccc3)ccc2n1CC(=O)N(C)CCc1ccccc1,155 to 156 °C
16,CC1=CCN(C)C2C1N2C#N (stereo unspecified),117 °C
17,N#Cc1nn(-c2c(Cl)cc(C(F)(F)F)cc2Cl)cc1OC(F)F,85 to 87 °C
18,Cc1oc(-c2ccccc2)nc1COc1ccc(Cn2cc(CCC(=O)O)cn2)cc1,124 to 125 °C
19,OC1(c2ccc(F)cc2)CCC2CNCCC2C1 (stereo unspecified),174 to 175 °C
20,CC(C)CNC(=O)C(C)NC(=O)C(C)NC(=O)C(C)NC(=O)CCC(=O)O (stereo unspecified),283 to 286 °C
21,O=C(CCc1ccncc1)c1c(O)c2cccnc2n(-c2cccc([N+](=O)[O-])c2)c1=O,174 to 177 °C
22,O=C1CC(c2cccs2)CN1 (stereo unspecified),75 to 76.5 °C
23,COC(=O)c1ccc(OC[C@H](C)N(C)C(=O)C(F)(F)F)cc1,73 to 75 °C
24,COc1cc2c(cc1NN)oc1ccccc12,113 to 115 °C

row,SMILES,melting point
1,CCOC(=O)C=Cc1ccc(F)c([N+](=O)[O-])c1,115 to 117 °C
2,C#Cc1cnn2c(C3CC3)cc(-c3ccc(Cl)c(Cl)c3)nc12,194 to 196 °C
3,COc1ccc(S(=O)(=O)c2ccccn2)cc1,112 °C
4,Cn1cc2c(nc(NC(=O)Nc3ccc(CC(=O)O)cc3)n3nc(-c4ccco4)nc23)n1,> 300 °C
5,CC1(C)OC(=O)Nc2ccc(-c3cccc(CC#N)c3)cc21,188 to 190 °C
6,COc1cccc2c1CCC1C(=O)N(C(C)c3ccccc3)C(=O)C21 (stereo unspecified),101 to 103 °C
7,CNC1CN(C(=O)Nc2ccc(C(F)(F)F)cc2)N=C1c1ccc(Cl)cc1 (stereo unspecified),148 to 149 °C
8,CCCCc1nc(SC)c(C(C)=O)n1Cc1ccc(-c2ccccc2S(=O)(=O)NC(=O)NCCC)cc1,176 to 177 °C
9,Cc1c(C)c2c(c(C)c1O)CCC(C)(C#Cc1cccc(C(F)(F)F)c1)O2 (stereo unspecified),81 to 83 °C
10,CCOC(=O)C1CN(C(C)=O)CCN1CC=CC(=O)Nc1cc2c(Nc3ccc(F)c(Cl)c3)ncnc2cc1OCC1CC1 (stereo unspecified),152 to 156 °C
11,O=S(=O)(O)c1ncnn1CC(O)(Cc1ccccc1Cl)C1(Cl)CC1 (stereo unspecified),68 to 70 °C
12,Cc1cc2c(s1)CNCC2O (stereo unspecified),120 °C
13,Cc1c(Cc2cccnc2)sc2ccc(C(N)=O)cc12,194 to 195 °C
14,CCCCCCCCCCCCCCCCCCOc1ccc(C(=O)C=Cc2ccc(SC)cc2)cc1,104 °C
15,CC12CC(N3CCC(=O)CC3)C(O)CC1CCC1C2CCC2(C)C(O)C(N3CCCCC3)CC12 (stereo unspecified),205 to 206 °C
16,Cc1cc(F)ccc1-c1cc(N2CCSCC2)ncc1C(=O)NC(C)(C)C,164 to 169 °C
17,CC(C(=O)O)c1ccc2cc(OCC(=O)O)ccc2c1 (stereo unspecified),185 to 188 °C
18,CCOC(=O)c1ccc(OCc2ccc3ccccc3c2)c(OC)c1,86 to 87 °C
19,CNC(=NC#N)NCCSCc1noc(NC(=N)N)n1,185 to 188 °C
20,CCCC(=Cc1cccs1)[N+](=O)[O-],25 to 25.5 °C
21,c1ccc(-c2nc3c([nH]2)Cc2ccccc2-3)cc1,141 to 143 °C
22,C=C(CC(N)=O)C(=O)O,153 to 154 °C
23,CC(NC(=O)c1c(F)cccc1F)C(F)(F)F (stereo unspecified),167 to 168 °C
24,N#CCN1C(=O)C2(COc3cc4c(cc32)OCCO4)c2ccccc21 (stereo unspecified),161 to 162 °C

row,SMILES,melting point
1,O=C(O)CC(=O)Nc1ccc(Br)cc1C(=O)O,203 to 206 °C
2,C/C(=N\OC(=O)[C@@H]1CCCN(C(=O)OC(C)(C)C)C1)[C@H]1CC[C@H]2[C@@H]3CCC4=CC(=O)CC[C@]4(C)[C@H]3CC[C@]12C,79 to 81 °C
3,CC(=O)OC1CSC(Oc2cncc(-c3ccc(C)cc3)c2)C(OC(C)=O)C1OC(C)=O (stereo unspecified),160 to 162 °C
4,CCCCCCCCCCC(=O)Nc1ccn(C2OC(CO)C(O)C2O)c(=O)n1 (stereo unspecified),146 to 150 °C
5,O=C1OC(c2ccccc2)CCN1Cc1ccccc1NS(=O)(=O)C(F)(F)F (stereo unspecified),152 °C
6,CN1C(=O)[C@H](NC(=O)CCc2ccc(Cl)cc2)N=C(c2ccccc2)c2ccccc21,203 to 205 °C
7,Cc1oc(-c2ccccc2)nc1COc1ccc(CO)cn1,121 to 122 °C
8,CCc1nc2c(c(C)c(C)n3nnnc23)n1CCOCCN1CCCC1=O,141 to 143 °C
9,Cc1cn(C2(C(=O)N(C)C)CCCC2)nc1-c1ccccc1,99 to 101 °C
10,COC(=O)CCc1cc2cc(Cl)ccc2n1S(=O)(=O)c1ccc(NC(C)=O)cc1,154 to 157 °C
11,CC(=O)c1cc(C(C)(C)C)cc(C(=O)O)c1O,159 to 161 °C
12,COc1cccc(C(O)CN(C)Cc2sc3c(=O)c(C(=O)NCc4ccc(Cl)cc4)cn(C)c3c2CO)c1 (stereo unspecified),165 to 168 °C
13,Cc1cc(=O)n(-c2cc3[nH]c(=O)sc3cc2F)c(=O)n1C,> 250 °C
14,CNc1ccccc1CS(=O)c1nc2ncccc2[nH]1 (stereo unspecified),120 °C
15,Cc1ncccc1C(C#N)N1CCN(C(=O)CC(NC(=O)Cc2cccc(OCc3ccc4ccccc4n3)c2)c2ccccc2)CC1 (stereo unspecified),83 to 86 °C
16,O=C(CCC(=O)c1cccs1)Nc1cccc2cc(-c3nccs3)[nH]c12,140 to 141 °C
17,O=c1[nH]c2cc([N+](=O)[O-])ccc2cc1P(=O)(O)O,> 300 °C
18,COc1ccccc1CC(=O)c1ccc(C(C)C)c(OS(N)(=O)=O)c1C(C)C,159 to 161 °C
19,Cc1ccc(C=CC(C#N)=NOS(C)(=O)=O)cc1,134 to 135 °C
20,CC(C)N(C)C(=O)NS(=O)(=O)c1cc(-n2c(=O)cc(C(F)(F)F)n(C)c2=O)c(F)cc1Cl,145 °C
21,O=[N+]([O-])c1cccc(-c2csc(NS(=O)(=O)Cc3ccccc3)n2)c1,219 to 221 °C
22,CCOC(=O)c1cnn(-c2nc(-c3cccc(C(F)(F)F)c3)cs2)c1C,138 °C
23,CCOC(=O)c1c(-c2cc(C(C)(C)C)c(O)c(C(C)(C)C)c2)c2cc3c(cc2oc1=O)CCC3,208 to 209 °C
24,CCCCOc1cc(C=O)c([N+](=O)[O-])cc1OCc1ccccc1,94 °C
